Test results published in article PMC4634939 (Journal of medicinal chemistry, 2015).

Legend:
TLR4 = target: T1, TLR4 (Mus musculus, UniProt Q9JHF9+Q9QUK6)
T1 sequence (Q9QUK6 26-835): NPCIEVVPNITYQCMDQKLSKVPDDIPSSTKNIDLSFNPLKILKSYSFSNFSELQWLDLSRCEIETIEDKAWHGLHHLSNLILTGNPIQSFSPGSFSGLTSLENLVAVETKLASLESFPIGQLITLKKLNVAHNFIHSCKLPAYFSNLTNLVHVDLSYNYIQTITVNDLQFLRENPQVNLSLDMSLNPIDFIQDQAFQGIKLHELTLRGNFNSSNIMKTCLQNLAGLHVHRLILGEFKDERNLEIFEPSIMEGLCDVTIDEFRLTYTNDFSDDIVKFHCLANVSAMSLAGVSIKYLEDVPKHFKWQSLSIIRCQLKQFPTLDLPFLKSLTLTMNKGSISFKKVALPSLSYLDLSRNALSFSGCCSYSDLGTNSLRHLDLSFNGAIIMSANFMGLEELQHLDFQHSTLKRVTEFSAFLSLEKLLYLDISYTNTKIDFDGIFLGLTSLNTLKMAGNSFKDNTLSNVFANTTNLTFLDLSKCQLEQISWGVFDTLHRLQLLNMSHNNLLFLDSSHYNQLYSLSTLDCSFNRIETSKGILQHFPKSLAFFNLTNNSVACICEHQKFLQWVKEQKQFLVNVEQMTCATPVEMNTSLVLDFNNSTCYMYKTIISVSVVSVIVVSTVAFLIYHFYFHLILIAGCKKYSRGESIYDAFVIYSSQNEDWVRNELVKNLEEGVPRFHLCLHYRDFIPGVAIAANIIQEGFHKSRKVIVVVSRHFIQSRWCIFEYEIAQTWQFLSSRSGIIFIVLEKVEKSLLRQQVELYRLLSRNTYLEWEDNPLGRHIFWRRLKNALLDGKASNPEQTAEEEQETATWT
T1 sequence (Q9JHF9 19-160): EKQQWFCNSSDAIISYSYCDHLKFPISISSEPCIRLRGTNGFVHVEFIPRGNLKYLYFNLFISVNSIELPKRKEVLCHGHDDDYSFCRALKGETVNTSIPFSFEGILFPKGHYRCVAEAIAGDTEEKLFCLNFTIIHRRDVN

[1] = Hargreaves test for analgesia; details: rat, intrathecal morphine 15 μg plus vehicle, P < 0.05

SMILES | ratio of cell viability IC50 (cytotoxicity) to TLR4 antagonist activity (TLR4; IC50 of viability / IC50 of NO) | TLR4 antagonist activity, times better than (+)-naltrexone (TLR4; relative to (+)-naltrexone 1a, NO assay in BV-2 cells) | analgesia to radiant heat compared to baseline [1]
O=C1CC[C@]2(O)[C@@H]3Cc4ccc(O)c5c4[C@]2(CCN3CCc2ccccc2)[C@@H]1O5 [1j, (4S,4aR,7aS,12bR)-4a,9-Dihydroxy-3-phenethyl-2,3,4,4a,5,6-hexahydro-1H-4,12-methanobenzofuro[3,2-e]isoquinolin-7(7aH)-one] | ~ 100 | ~ 75 fold | 
CN1CC[C@]23c4c5ccc(O)c4O[C@H]2[C@@H](O)C=C[C@H]3[C@H]1C5 [morphine] |  |  | produced significant analgesia to radiant heat
